Laboratory results as given in patent publication US20260365692A1, “COMPOSITIONS COMPRISING PROTEINS DISSOLVED IN FLUORINATED SOLVENTS, AND METHODS OF MAKING AND USING THE SAME” (priority 2022, published 2026).

Legend:
[1] = system: seven model proteins (Hb, GFP, BSA, β-Gal, IgG, TFN, URE); test: Fluorochemical-mediated dispersion of test proteins into perfluorohexane; format: physicochemical; conditions: into PFH, 1000:1 molar ratio with protein
Source text: Only the rabbit IgG Fc fragment is shown.
For PFAS amphiphiles, the combination of polar head group and fluorophilic tail additionally leads to their preferential assembly at water-fluorous interfaces. Based on these unique properties, it was speculated that PFAS compounds may noncovalently associate with proteins to mediate their phase separation into fluorous media. To test this, a screening assay was developed to qualitatively investigate the binding affinity of a library of perfluorinated chemicals with seven model proteins, which include human hemoglobin (Hb), green fluorescent protein (GFP), bovine serum albumin (BSA), (β-Galactosidase (β-Gal), rabbit serum immunoglobulin (IgG), bovine apo-transferrin (TFN), and urease (URE). This group of model proteins captures an array of physicochemical properties ranging in molecular weight, solvent accessible surface area (SASA), isoelectric point (pI), and hydrodynamic radii. A corresponding perfluorinated small molecule test set was selected to contain a plurality of functional groups, linear perfluorocarbon chain lengths, and cyclic or aromatic geometries (FIGS. 1-7). Selection of these compounds was based on their potential to form noncovalent bonds (i.e., hydrogen or ionic) with the solvent exposed protein surfaces. […] These three linear PFAS chemicals are currently regulated by the US Environmental Protection Agency based on their reproductive, immune, and hepatic toxicity (References: 44-46). In sum, the structural and biochemical diversity represented in the protein and fluorochemical libraries was rationally selected to allow structure-function-performance relationships to be ascertained from binding studies.

[2] = system: E. coli, P. aeruginosa, K. pneumoniae, Methicillin-resistant S. aureus (MRSA), C. albicans; test: Contamination of BSA formulations by bacterial and fungal pathogens
Source text: FIG. 53 depicts representative photographs of agar plates streaked with BSA formulations in PBS (top panel) or PFOc (lower panel) contaminated with the indicated pathogen. MRSA=methicillin resistant Staphylococcus aureus.
Evaluating PFOc Protein Formulation Resilience Against Contaminants Aqueous protein formulations can be compromised by contaminating pathogens, or the biologic inactivated by exposure to environmental disinfectants and acids. In the context of bacterial and fungal contamination, it was hypothesized that removal of the water solvent required for microorganismal survival should make the PFOc protein formulations intrinsically sterile. A hypodermic needle was streaked across a lawn of the human bacterial pathogens E. coli, P. aeruginosa, K. pneumoniae or Methicillin-resistant S. aureus (MRSA), as well as the human fungal pathogen C. albicans prepared on agar. The contaminated needle was then submerged into BSA protein formulations prepared in either PBS or PFOc solvents. Contaminated liquid formulations were incubated at 37 °C overnight and replated onto agar plates to assess growth.

[3] = Temperature-dependent circular dichroism of proteins in PFOc or PBS (Example 4); format: physicochemical
Description: FIGS. 39A-39B depict temperature-dependent CD spectra of the indicated test protein solubilized in PFOc using the PD-7 dispersant, or PBS as a control.
FIG. 40 depicts the change in minimum CD ellipticity over the 40 °C-85 °C temperature interval for the indicated protein dissolved in either PBS or PFOc.
To determine structural integrity of proteins in aqueous and fluorinated environments at elevated temperatures, circular dichroism (CD) was used to probe secondary structure. Proteins were either diluted in PBS (aqueous) or dispersed in PFOc at the same designated concentrations according to protocol described above. For aqueous samples, dissolved proteins were heated between 40 °C to 90 °C, and their corresponding CD spectra at each temperature was measured. For PFOc samples, each of the PFOc dispersed proteins were subjected to heat treatment at 40, 55, 70, and 85 °C for 15 minutes. After that, dispersed proteins were eluted into PBS before having their CD spectra taken. Data is shown by representative ellipticity at each temperature depicted by distinct colors.

E. coli = test: Bacterial contamination of BSA samples with E. coli; conditions: 37 °C overnight
Description: FIG. 24A: Diagram of contamination experiment. FIG. 24B: Samples in PBS (top) and PFOc (bottom) after contamination with E. coli.
To model bacterial contamination of samples a hypodermic needle was streaked across a lawn of plated E. coli (FIG. 24A). The contaminated needle was then dipped into PBS or PFOc (containing PFNA) samples with dispersed BSA protein to contaminate, and samples incubated at 37 °C overnight to allow for bacterial growth. An aliquot of the solution was then streaked onto LB-agar plates and incubated at 37 C overnight to allow for bacterial colony formation.

β-Galactosidase (β-Gal) = conditions: into PFH, 1000:1 molar ratio with protein
Source text: FIGS. 8A-8G depict fluorochemical-mediated dispersion of test proteins hemoglobin (Hb, FIG. 8A), green fluorescent protein (GFP, FIG. 8B), bovine serum albumin (BSA, FIG. 8C), β-Galactosidase (β-Gal, FIG. 8D), rabbit serum immunoglobulin G (IgG, FIG. 8E), bovine apo-transferrin (TFN, FIG. 8F), and urease (URE, FIG. 8G) into perfluorohexane. […] The compound ‘0’ indicates a control sample absent of an additive. The crystal structure of each protein candidate tested is shown in the inset of each of FIGS. 8A-8G. Only the rabbit IgG Fc fragment is shown.
To investigate PFAS-protein binding avidity, an assay was developed to measure the concentration of protein dispersed into perfluorohexane (PFH) in the presence of each fluorochemical compound (1000:1 molar ratio with protein). Protein dispersion into PFH served as a quantitative measure of PFAS-protein avidity, where the amount of dispersed protein was normalized to its initial concentration to evaluate binding interactions.

HepG2 cells = test: HepG2 MTT viability assay (Example 2); format: cell-based, human; conditions: HepG2, 37 °C overnight
Description: FIG. 28 depicts a viability assay for HepG2 cells treated with two first generation compounds and two second generation compounds.
Next, viability assays were performed by seeding HepG2 (liver cancer cell line) onto 96 well plates and allowing the cells to adhere overnight. DMEM cell culture media containing various concentrations of each FTag compound were then added, and the plates were incubated at 37 °C overnight. The supernatant was then removed and MTT viability dyes were added to each well and allowed to convert for 2 hours. Dye absorbance for each condition was then compared to positive (20% DMSO) and negative (blank media) controls to calculate % viability (FIG. 28).

[4] = Thermal stability of proteins in PFNA/PFOc (bioactivity after heating); format: physicochemical; conditions: PFNA/PFOc mixture compared to aqueous solution, 30 min heating
Description: FIGS. 16A-16C depict that the thermal stability of β-gal, GFP, and Trypsin is enhanced when the proteins are dissolved in a PFNA/PFOc mixture, compared to aqueous solutions of the proteins.
PFNA enhanced thermal stability in PFOc Differential scanning calorimetry (DSC) measurements were performed on 5 test proteins dissolved in either PBS (Aq.) or Perfluorooctane (PFOc). PFNA dispersant was added only for the PFOc conditions. DSC was performed at 2 °C/min ramp from 40 °C-100 °C. Melting temperature (Tm) was determined based on positive inflection of heat capacity curve, indicating protein unfolding (FIG. 15). Change in melting temperature (ATm (°C)) represented the difference in Tm between aqueous (Aq.) and PFOc data. Tm for GFP in PFOc could not be achieved at the maximum temperature of 100 °C for the DSC experiments. Each protein was dissolved in PBS (Aq.) or PFNA/PFOc mixture. Dissolved proteins were heated to 75 °C (β-gal), 90 °C (GFP) or 80 °C (Trypsin); treatment temperatures were determined based on aqueous melting temperatures for each protein. Positive controls were maintained at room temperature (25 °C). […] Bioactivity was evaluated then via fluorescence measurements for GFP, or using colorimetric substrate conversion assays (ONPG for β-gal, BAEE for Trypsin). […]

[5] = Protein activity after elevated temperature exposure (Example 4); format: physicochemical; conditions: 90 °C for 30 minutes
Description: A group of enzyme proteins, β-Gal and Trypsin was chosen for this study. β-Gal and Trypsin were diluted in PBS or dispersed in PFOc at 1 μM and 10 μM, respectively. Next, a subset of samples was subjected to elevated temperature condition (90 °C) well beyond their native denaturation temperature for 30 minutes. After that, samples were allowed to cool down to room temperature before retrieval. For PFOc samples, proteins were extracted into PBS before performing the ensuing assays. To determine the enzymatic activity, an equal volume of protein samples was added to their substrates dissolved in PBS (4 mg/mL ONPG for β-Gal or 1 mg/mL BAEE for Trypsin). After incubation, ONPG and BAEE substrate conversions were measured by taking absorbance using a microplate reader at 420 nm or 400 nm, respectively. In case of intrinsic fluorescence, GFP was similarly prepared, and heat treated. After GFP samples were retrieved, fluorescent intensity was taken at λex=490 nm, λem=520 nm. The change in protein activity was presented by normalizing to spectrometric readings of each protein dissolved in PBS without being subjected to heat (room temperature). […] This supports the assertion that the fluorous coating and solvent environments, together, serve to constrain the conformational flexibility of the dispersed protein and, as a result, increase its melting temperature.

[6] = dispersed in PFOc using PD-7, heated up to 85 °C

Molecule: O=C(O)C(F)(F)C(F)(F)C(F)(F)C(F)(F)C(F)(F)C(F)(F)C(F)(F)C(F)(F)C(F)(F)F [Compound 8, perfluorodecanoic acid]
- capacity to disperse proteins into PFH / association with proteins (in words) [1]: significantly compromised its association with most proteins

Molecule: NCC(F)(F)C(F)(F)C(F)(F)C(F)(F)C(F)(F)C(F)(F)C(F)(F)C(F)(F)F [Compound 20, 1H,1H-perfluorononylamine]
- capacity to disperse proteins into PFH / association with proteins (in words) [1]: capacity to disperse many of the protein candidates into PFH

Molecule: O=C(O)C1(F)C(F)(F)C(F)(F)C(F)(F)C(F)(F)C1(F)F [Compound 13, perfluorocyclohexanecarboxylic acid]
- capacity to disperse proteins into PFH / association with proteins (in words) [1]: capacity to disperse many of the protein candidates into PFH

Molecule: BSA: bovine serum albumin (BSA)
- contamination ([2]; BSA in PBS): readily contaminated by all five pathogens
- sterility after contamination ([2]; BSA in PFOc): remained sterile
- change in secondary structure [3, 6]: minimal changes in secondary structure
- E. coli colony growth after contamination (E. coli; BSA in PBS): Visible E. coli colony growth
- sterility after contamination (E. coli; BSA in PFOc (containing PFNA)): remained sterile

Molecule: O=C(O)C(F)(F)C(F)(F)C(F)(F)C(F)(F)C(F)(F)C(F)(F)C(F)(F)C(F)(F)C(F)(F)C(F)(F)C(F)(F)C(F)(F)C(F)(F)F [Compound 11, perfluorotetradecanoic acid]
- dispersion efficiency of β-Gal (in words) (β-Galactosidase (β-Gal)): sharp drop off in dispersion efficiency

Molecule: O=S(=O)(O)C(F)(F)C(F)(F)C(F)(F)C(F)(F)C(F)(F)C(F)(F)C(F)(F)C(F)(F)F [Compound 17, perfluorooctanesulfonic acid]
- capacity to disperse proteins into PFH / association with proteins (in words) [1]: capacity to disperse many of the protein candidates into PFH

Molecule: O=C(O)C(F)(F)C(F)(F)C(F)(F)C(F)(F)C(F)(F)C(F)(F)C(F)(F)F [Compound 6, perfluorooctanoic acid]
- capacity to disperse proteins into PFH / association with proteins (in words) [1]: significantly compromised its association with most proteins

Molecule: 2,2-(1,1,1,2,2,3,3,4,4,5,5,6,6-tridecafluorooctane)-2-cyanoacetic acid [Compound 21]
- IC50 (HepG2 cells): 610 µM

Molecule: O=C(O)C(F)(F)C(F)(F)C(F)(F)C(F)(F)C(F)(F)C(F)(F)C(F)(F)C(F)(F)C(F)(F)C(F)(F)C(F)(F)F [Compound 10, perfluorododecanoic acid]
- dispersion efficiency of β-Gal (in words) (β-Galactosidase (β-Gal)): stepwise increase in dispersion efficiency

B1: Trypsin: bovine trypsin (protein, UniProt P00760 24-246, looked up)
Serine protease 1: IVGGYTCGANTVPYQVSLNSGYHFCGGSLINSQWVVSAAHCYKSGIQVRLGEDNINVVEGNEQFISASKSIVHPSYNSNTLNNDIMLIKLKSAASLNSRVASISLPTSCASAGTQCLISGWGNTKSSGTSYPDVLKCLKAPILSDSSCKSAYPGQITSNMFCAGYLEGGKDSCQGDSGGPVVCSGKLQGIVSWGSGCAQKNKPGVYTKVCNYVSWIKQTIASN
- thermal stability [4]: enhanced
- change in activity after heating ([5]; PFOc dispersed): no statistically significant change in activity
- loss of bioactivity after heating ([5]; saline): > 90%
- change in secondary structure [3, 6]: minimal changes in secondary structure
- change in secondary structure ([3]; saline (PBS) control, 40-85 °C): minimal change in structure
